Values joined by “and” are separate entries in the source; they are usually repeats but may differ in a detail not shown here. Equal values may be shown once. Read-outs that look alike come from different tables or passages of the source.
Experiments:
[1] = test system: wild-type aywl strain of HBV; test: HBV primary assay (HepG2-2.2.15 antiviral assay); assay type: cell-based; details: Test Concentration 1 μM
Procedure: The HBV primary assay developed was conducted similarly to that described by Korba et al., (Antiviral Res. 15: 217-228 (1991) and Antiviral Res. 19: 55-70 (1992)) with the exception that viral DNA detection and quantification have been improved and simplified (Korba et al., Antiviral Res. 19: 55-70 (1992)).
Compound 38 (KX2-377), Compound 136 (KX2-393), and Compound 137 (KX2-394) were evaluated for potential anti-HBV activity using a single high-test concentration of compounds in the standardized HepG2-2.2.15 antiviral assay. The HepG2-2.2.15 is a stable cell line producing high levels of the wild-type aywl strain of HBV. Briefly, HepG2-2.2.15 cells were plated in 96-well plates. Only the interior wells were utilized to reduce “edge effects” observed during cell culture; the exterior wells are filled with complete medium to help minimize sample evaporation. On the following day, the confluent monolayer of HepG2-2.2.15 cells was washed and the medium is replaced with complete medium containing test concentrations of a test article in triplicate. 3TC was used as the positive control, while media alone was added to cells as the untreated control. Three days later the culture medium was replaced with fresh medium containing the appropriately diluted drug. Six days following the initial administration of the test compound, the cell culture supernatant was collected, treated with pronase and DNAse and then used in a real-time quantitative TaqMan PCR assay for direct measurement of HBV DNA copies using an ABI Prism 7900 sequence detection system (Applied Biosystems, Foster City, Calif.).
The antiviral activity of each test compound was calculated by comparing its HBV DNA copies against that of the untreated control cells (100%) to derive percent inhibition level. After removing the supernatant, the remaining cells were subject to CellTiter 96 Aqueous One (Promega, Madison, Wis.) solution cell proliferation assay (MTS-based) to measure cell viability. Cytotoxicity of the compound was determined by comparing its cell viability with that of the untreated cell control to derive percentage of the cell control.

[2] = plasma pharmacokinetics after IV administration; assay type: in vivo, Male CD-1 mice; details: single IV dose 5 mg/kg
Procedure: (§1) [drawing 435] are described below. Plasma concentrations were measured in mice after oral and IV administration. Both oral and IV doses were formulated in saline. Male CD-1 mice were dosed after an overnight fast and fed 4 hours post-dose.
A single IV dose of 139 was administered to male CD-1 mice intravenously at 5 mg/kg (dose volume of 3 mL/kg). The plasma concentration of 139 was measured at 0 min, 5 min, 15 min, 30 min, 1 h, 3 h, 6 h, and 12 h time points. A liquid-liquid extraction procedure was used to isolate the analyte and internal standard from mice plasma. After the extract was dried and reconstituted, the sample was directly injected into a liquid chromatography/mass spectrometry (LC/MS) system. HPLC conditions were as follows: • HPLC System: Shimadzu SCL-10 System • Analytical Column: Aquasil C18 5 μm 50×2.1 mm column. • Column Temperature: Ambient temperature • Autosampler Temperature: Ambient temperature • Mobile Phase A) 10 mM Ammonium formate in water (pH4). • B) Acetonitrile. • Flow Rate: 0.6 mL/min • Injection Volume: 4 μL • Gradient:
• Mass spectrometry conditions were as follows: • Instrument: ABI Sciex API 4000 • Mode: ESI+ • Experiment: MRM (multiple reaction monitoring) • Transitions: 139: m/z 480.1→127.1 (Rt=3.8 minute)

[3] = plasma pharmacokinetics after oral administration; assay type: in vivo, Male CD-1 mice
Procedure: as §1
[…] The plasma concentration of 139 was measured at 0 min, 30 min, 1 h, 3 h, 6 h, 12 h, and 24 h time points. As discussed above for the i.v. administration, the analyte was extracted and analyzed by HPLC/mass spec.

HT29 cell line = test: BrdU cell growth inhibition, HT29; assay type: cell-based, human; details: Homo sapiens, HT-29, HT29 (Colon) cells; read-out: GI50
Procedure: (§2) The GI50s for several of the compounds of the invention were assayed as described herein.
The HT29 cell line is a NCI standard human colon carcinoma cell line.
(§3) In the BrdU Assay for cell growth inhibition, quantitation of cell proliferation was based on the measurement of BrdU incorporation during DNA synthesis. The Cell Proliferation ELISA BrdU assay kit (colorimetric) was obtained from Roche Applied Science and performed as per vendor instructions.
(§4) The growth inhibition (GI) is determined from the formula GI=(T0−Tn×100/T0−CONn) where T0 is the BrdU growth of untreated cells at time “0”, Tn is the BrdU growth of treated cells at day “n” and CONn is the control BrdU growth of control cells at day “n”. The GI50 was extrapolated and the data plotted using XL-Fit 4.0 software.
(§5) For 96 well culture plate experiments, c-Src 3T3 medium was supplemented with 10 mM HEPES buffer. HT-29 cells were seeded in standard tissue culture 96-well plates and c-Src 3T3 cells were seeded in 96-well plates coated with Poly-D-lysine (BIOCOAT™). To increase CO2 diffusion, c-Src 3T3 96-well plates were incubated with their lids raised by ˜2 mm using sterile rubber caps.
(§6) Samples were reconstituted in DMSO at 20 mM and intermediate dilutions made using DMEM containing 10% FBS. […] Plates were assayed for BrdU and the data analyzed as above for GI50.
(§7) All compounds were initially prepared as 20 mM DMSO stock solutions and then diluted into buffer for the in vitro tumor growth assays. NG means no cell growth beyond the control and T means the number of cells in the drug treated wells was less than in the control (i.e. net cell loss).
(§8) Growth Inhibition. […] T1 values≤T0 values were designated as T, cytotoxicity.

c-Src 3T3 cells = test: BrdU cell growth inhibition, c-Src 3T3; assay type: cell-based, mouse; details: Mus musculus; c-Src 3T3 (c-Src527F/NIH3T3) cells; read-out: GI50
Procedure: as §2
The cells were routinely cultured in DMEM supplemented with Fetal Bovine Serum (2.0% v/V), L-glutamine (2 mM) and Sodium Pyruvate (1 mM).
as §3, §4, §5, §6, §7

[4] = test system: lung cancer cell line A549; test: tumor growth inhibition, A549; assay type: cell-based, Human; details: Homo sapiens, A549, A549 (Lung) cells
Text: as §8

GL261 glioma cells = test: intracranial GL261 glioma survival study; assay type: in vivo, C57BL/6 mice; details: 5 mg/kg weekly ×1 oral; C57BL/6 mice, intracranial GL261
Procedure: (§9) A brain tumor mouse xenograft study was conducted comparing KX2-361 and KX2-391 (KXO1) to Temodar®. The studies were conducted in C57BL/6 mice. GL261 glioma cells (1×10^5 in 5 μl DMEM) were implanted intracranial coordinates: bregma, lateral 2.0 mm, anterior 1.2 mm, 3.0 mm depth dura. Treatment was initiated 3 days post implantation. The groups were as follows (all doses in 100 μl H2O):
The median survival range and the log-rank (Mantel-Cox) statistical test results comparing the survival distributions of the samples.

[5] = body weight in GL261 glioma survival study; assay type: in vivo; details: Temodar 5 mg/kg, C57BL/6 mice
Procedure: as §9
FIGS. 49A-E show the weight gain in each of the C57BL/6 mice in the different treatment groups. The average weight at endpoint for each of the treatment groups is shown below in Table 30. FIG. 50 is a graph showing the average weights over a 40-day period for each of the treatment groups.

SKOV-3 (Ovarian) = test: growth inhibition (BrdU), SKOV-3; assay type: cell-based, Human; details: Homo sapiens, SK-OV-3; SKOV-3 (Ovarian) cells
Text: as §8

[6] = male, CD-1, mouse, single oral dose 25 mg/kg

## Nc1ccn([C@@H]2CS[C@H](CO)O2)c(=O)n1 [Compound 3TC, 3TC, reference compound]
[1]
  Antiviral Activity Percent inhibition of cell control: 92.0%
  Interpretation: Active

## CN1CCN(CCOc2ccc(-c3ccc(CC(=O)NCc4cccc(F)c4)cc3)c(F)c2)CC1 [Compound 139, 2-(2′-fluoro-4′-(2-(4-methylpiperazin-1-yl)ethoxy)biphenyl-4-yl)-N-(3-fluorobenzyl)acetamide]
[2]; male, CD-1, mouse, plasma, iv, 5 mg/kg, 5 min, read-out: Plasma Concentrations, Group A, B, C
  concentration at 5 min: 1200 ng/mL
[2]; male, CD-1, mouse, plasma, iv, 5 mg/kg, 5 min, read-out: Plasma Concentrations, Mean
  concentration at 5 min: 1250 ng/mL
[2]; male, CD-1, mouse, plasma, iv, 5 mg/kg, 15 min, read-out: Plasma Concentrations, Group A, B, C
  concentration at 15 min: 273 ng/mL
[2]; male, CD-1, mouse, plasma, iv, 5 mg/kg, 15 min, read-out: Plasma Concentrations, Mean
  concentration at 15 min: 329 ng/mL
[2]; male, CD-1, mouse, plasma, iv, 5 mg/kg, 30 min, read-out: Plasma Concentrations, Group A, B, C
  concentration at 30 min: 500 ng/mL
[2]; male, CD-1, mouse, plasma, iv, 5 mg/kg, 30 min, read-out: Plasma Concentrations, Mean
  concentration at 30 min: 382 ng/mL
[2]; male, CD-1, mouse, plasma, iv, 5 mg/kg, 1 hr, read-out: Plasma Concentrations, Group A, B, C
  concentration at 1 h: 186 ng/mL
[2]; male, CD-1, mouse, plasma, iv, 5 mg/kg, 1 hr, read-out: Plasma Concentrations, Mean
  concentration at 1 h: 178 ng/mL
[2]; male, CD-1, mouse, plasma, iv, 5 mg/kg, 3 hr, read-out: Plasma Concentrations, Mean
  concentration at 3 h: 207 ng/mL
[2]; male, CD-1, mouse, plasma, iv, 5 mg/kg, 6 hr, read-out: Plasma Concentrations, Mean
  concentration at 6 h: 43.2 ng/mL
[2]; male, CD-1, mouse, plasma, iv, 5 mg/kg, BLQ = 0, read-out: Plasma Concentrations, Mean
  concentration at 12 h: 3.67 ng/mL
[2]; male, CD-1, mouse, plasma, iv, 5 mg/kg, read-out: Plasma Concentrations, Group A, B, C
  concentration at 12 h: 11 ng/mL
[2]; male, CD-1, mouse, plasma
  AUC(0-inf): 1420 ng·h/mL
  AUC(0-t): 1410 ng·h/mL
  C0: 2420 ng/mL
  MRT: 2.3 h
  clearance: 58.7 mL/min/kg
[2]; male, CD-1, mouse, plasma, estimated from 3, 6, 12 hours
  half-life: 1.6 h
[2]; male, CD-1, mouse, plasma, read-out: Vss
  Vd: 8.15 L/kg
[2]; plasma
  % AUC Extrap: 0.6%
  AUC0-∞/Dose: 284.1 kg·ng·h/mL/mg
[2]; 5 min, 5 mg/kg
  Plasma Concentrations, Group A, B, C: 1287 ng/mL and 1260 ng/mL
[2]; 15 min, 5 mg/kg
  Plasma Concentrations, Group A, B, C: 306 ng/mL and 407 ng/mL
[2]; 30 min, 5 mg/kg
  Plasma Concentrations, Group A, B, C: 367 ng/mL and 279 ng/mL
[2]; 1 hr, 5 mg/kg
  Plasma Concentrations, Group A, B, C: 210 ng/mL and 137 ng/mL
[3]; male, CD-1, mouse, (Mean AUC0-∞ oral/oral dose)/(Mean AUC0-∞ IV/IV dose)×100%, 25 mg/kg oral, 5 mg/kg IV, read-out: Estimated bioavailability
  bioavailability: 34.4%
[3]; male, CD-1, mouse, po, 25 mg/kg, single PO dose 25 mg/kg, 30 min, read-out: Plasma Concentrations, Mean
  concentration at 30 min: 318 ng/mL
[3]; male, CD-1, mouse, po, 25 mg/kg, single PO dose 25 mg/kg, 1 hr, read-out: Plasma Concentrations, Mean
  concentration at 1 h: 142 ng/mL
[3]; male, CD-1, mouse, po, 25 mg/kg, single PO dose 25 mg/kg, 3 hr, read-out: Plasma Concentrations, Mean
  concentration at 3 h: 330 ng/mL
[3]; male, CD-1, mouse, po, 25 mg/kg, single PO dose 25 mg/kg, 6 hr, read-out: Plasma Concentrations, Mean
  concentration at 6 h: 119 ng/mL
[3]; male, CD-1, mouse, po, 25 mg/kg, single PO dose 25 mg/kg, 12 hr, read-out: Plasma Concentrations, Mean
  concentration at 12 h: 56.6 ng/mL
[3]; male, CD-1, mouse, po, 25 mg/kg, single PO dose 25 mg/kg, BLQ = 0, read-out: Plasma Concentrations, Mean
  concentration at 24 h: 15.6 ng/mL
[3]; male, CD-1, mouse, po, 25 mg/kg, single PO dose 25 mg/kg, read-out: Plasma Concentrations, Group A, B, C
  concentration at 24 h: 31.2 ng/mL
[3]; [6]
  AUC(0-inf): 2440 ng·h/mL
  AUC(0-t): 2300 ng·h/mL
  Cmax: 330 ng/mL
  MRT: 7.7 h
  Tmax: 3 h
[3]; male, CD-1, mouse, single oral dose 25 mg/kg, estimated from 6, 12, 24 hours
  half-life: 6.2 h
[3]; single oral dose 25 mg/kg
  % AUC Extrap: 5.7%
  AUC0-∞/Dose: 97.6 kg·ng·h/mL/mg

## O=C(Cc1ccc(-c2ccc(CN3CCOCC3)cc2F)cn1)NCc1cccc(F)c1 [KX2-393]
HT29 cell line
  GI50: 52 nM
c-Src 3T3 cells
  GI50: 24 nM

## COc1cc(Nc2c(C#N)cnc3cc(OCCCN4CCN(C)CC4)c(OC)cc23)c(Cl)cc1Cl [SKI-606]
HT29 cell line
  GI50: 173 nM
c-Src 3T3 cells
  GI50: 208 nM

## C#Cc1cccc(Nc2ncnc3cc(OCCOC)c(OCCOC)cc23)c1 [Tarceva, erlotinib, reference compound]
[4]
  GI50: 1740 nM

## Cn1nnc2c(C(N)=O)ncn2c1=O [Temodar ®, Temodar®, reference compound]
GL261 glioma cells
  Median survival: 29
  survival Range: 26-29
[5]
  Average weight at endpoint: 13.3 g

## CC(=O)O[C@H]1C(=O)[C@@]2(C)[C@H]([C@H](OC(=O)c3ccccc3)[C@]3(O)C[C@H](OC(=O)[C@H](O)[C@@H](NC(=O)c4ccccc4)c4ccccc4)C(C)=C1C3(C)C)[C@]1(OC(C)=O)CO[C@@H]1C[C@@H]2O [taxol, paclitaxel, reference compound]
SKOV-3 (Ovarian)
  GI50: 3.9 nM

— US10196357B2, “Biaryl compositions and methods for modulating a kinase cascade” (Athenex, Inc., priority 2007, dated 2019)
